Consider 1 compound from ChEMBL document CHEMBL2203036, “Discovery of 1-[2-(2,4-dimethylphenylsulfanyl)phenyl]piperazine (Lu AA21004): a novel multimodal compound for the treatment of major depressive disorder” (J Med Chem, 2011).

The assay addresses 5-hydroxytryptamine receptor 2C (Homo sapiens) (UniProt P28335). As to the kind of experiment: Binding affinity to human 5HT2C receptor.

Sequence of 5-hydroxytryptamine receptor 2C (Homo sapiens) (P28335 whole entry, looked up): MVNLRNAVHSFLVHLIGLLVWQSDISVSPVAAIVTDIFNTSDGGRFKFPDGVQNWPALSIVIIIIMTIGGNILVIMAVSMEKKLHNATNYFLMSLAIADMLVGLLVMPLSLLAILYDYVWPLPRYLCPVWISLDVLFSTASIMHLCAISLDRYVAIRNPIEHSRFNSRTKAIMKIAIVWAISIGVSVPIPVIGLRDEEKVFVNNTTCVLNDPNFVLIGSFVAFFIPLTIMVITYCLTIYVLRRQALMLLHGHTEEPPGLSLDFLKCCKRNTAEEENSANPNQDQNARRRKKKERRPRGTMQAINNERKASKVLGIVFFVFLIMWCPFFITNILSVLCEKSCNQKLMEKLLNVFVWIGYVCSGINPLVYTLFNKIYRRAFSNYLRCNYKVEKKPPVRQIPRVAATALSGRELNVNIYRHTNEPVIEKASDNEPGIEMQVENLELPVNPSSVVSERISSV

Turning to `Cc1ccc(Sc2ccccc2N2CCNCC2)c(C)c1.Cl`, the Ki is 180 nM.
